{
  "source": "patent US20050187409A1",
  "about": "“Inhibitors of RNase P proteins as antibacterial compounds” (priority 2003, published 2005)",
  "key": {"S. pyogenes": {"tested_on": "S. pyogenes", "assay": "Bacterial inhibition assay (growth, OD readout)", "assay_type": "cell-based", "details": "CAMHB-3% LHB medium, 35° C., 16-20 hours", "protocol": "(§1) Compounds of the invention (see Table 5) were assayed for their ability to inhibit bacterial growth. Compounds were diluted from 10 mM DMSO stocks to 3 mM and 1 mM in DMSO. The compounds were further diluted from these stocks into saline for 200, 120, and 20 μM stocks. Control antibiotics were diluted similarly. Overnight cultures of bacteria were made in the following manner. N. gonorrhea was streaked onto a chocolate agar plate and incubated at 35° C./5% CO2. Rather than make an overnight culture of S. pyogenes, a loopful of S. pyogenes from a blood plate or a stock plate was used the following day for direct cell suspension.\n(§2) On the following day bacteria were prepared by dilution into saline with O.D. […] readings taken to determine the concentration of the bacteria. CFUs (colony forming units) were determined using the formula: CFU/mL=OD625×(1.5×10^8 CFU/mL/OD McFarland std)×dilution. The four bacterial cultures were diluted initially to 5.5×10^7 CFU/mL. The bacteria were then further diluted into medium to 5.5×10^5 CFU/mL for S. pyogenes and 5.5×10^6 CFU/mL for N. gonorrhea. S. pyogenes and N. gonorrhea were grown in CAMHB-3% LHB medium. The bacteria were added one per plate at 200 μL per well. Compounds were added in 10 μL aliquots for final concentrations of 10, 3, and 1 μM in duplicate. Control antibiotics, penicillin for S. pyogenes and ciprofloxacin for N. gonorrhea, were added from 0.8 mg/ml to 0.003 mg/ml. Plates were incubated at 35° C. with O2 for 16-20 hours for S. pyogenes, and read at OD665 in a Victor2 plate reader. Plates were incubated at 35° C. with 5% CO2 for 24 hours for N. gonorrhea at which time 40 μL of MTS reagent is added per well and incubated for 1 hour in same incubator. The plates were read at OD490. Compounds were tested at 1 μM, 3 μM, and 10 μM concentrations. The results, which are expressed as a percentage of the control, were calculated using equation 2. In this equation, O.D. is optical density; (O.D. compounds+bacteria) is the optical density observed for bacteria grown in the presence of a compound of the invention; (O.D. blank) is the optical density in the absence of bacteria; and (O.D. bacteria) is the optical density observed for bacteria growing uninhibited. Other RNase P inhibitors may be tested similarly using any bacteria of interest. [formula]"}, "[1]": {"target": "N. gonorrhea RNase P (M1 RNA + C5 protein) (Neisseria gonorrhoeae, UniProt Q5F4W3)", "assay": "Time resolved fluorescence (TRF) RNase P inhibition assay", "assay_type": "biochemical", "details": "30 min enzyme reaction, ptGLN substrate; read-out: N. gonorrhoeae TRF IC50(μM) (Example 15)", "excerpt": "The ability of compounds of the invention to inhibit RNase P enzymes can be assessed by standard techniques. For example, the cleavage of ptRNA^Gln by the enzyme N. Gonorrhea RNase P, can be monitored in the presence and absence of a candidate compound as described in the Example 15. The progress of the RNase P-mediated cleavage reaction can be assessed by measuring the […] hybridized to the cleaved substrate.\nTime Resolved Fluorescence RNase P Inhibition Assay\n96-well Nunc MaxiSorp FluoroNunc plates were coated with 50 μl/well of 1 μg/ml of streptavidin in base buffer (150 mM KCl, 5 mM MgCl2, 50 mM Tris, pH 7.6) and incubated overnight. The plates were washed using TRF.96 protocol, and then blocked with 150 μl of a 1 mg/ml BSA solution in base buffer and incubated with shaking for sixty minutes. The plates were then washed twice with base buffer plus 0.01% Tween20. 50 μl of 40 nM T17-bt (biotinylated DNA oligonucleotide complementary to the RNaseP substrate leader sequence used to capture intact RNaseP substrate) was then added to all wells, and the plates were incubated with shaking for 1 hr.\nA 0.4 nM solution of N. gonorrhea M1 RNA was made from a 1 μM stock solution. A 0.5 nM solution of N. gonorrhea C5 protein is made by diluting a 10 μM stock. ΔUL-ptGLN UTP-bt (10 μM stock) was diluted into PA buffer for a concentration of 40 nM.\nCompounds were serially diluted in DMSO from 20 mM stocks to 6, 2, 0.6, 0.2, and 0.06 mM dilutions. These titrations were then diluted (2 μl to 100) in PA buffer, and 12.5 μl of each concentration was added in duplicate to a 96-well V-bottom polypropylene plate. The highest concentration was put in row G and the lowest in row B. Rows A & H received 12.5 μl of DMSO/PA buffer.\nThe enzyme reaction was initiated in the V-bottom polypropylene plates containing compound dilutions by adding 12.5 μl of the N. gonorrhea M1 solution to rows A-G. PA buffer was added to row H. 12.5 μl of the C5 solution was added similarly to the M1 solutions. 12.5 μl of the substrate solution was then added to all wells. The plates were incubated for 30 minutes at which time 12.5 μl of stop buffer was added to all wells. (Stop buffer: 500 μg/ml polyC/50 nM SA-Eu in 335 mM MgCl2 PA buffer).\nThe T17-biotin-coated plate was washed three times, and 37.5 μl of 75 mM MgCl2 PA buffer was added to each well. After 30 minutes incubation with the stop buffer, 12.5 μl from all of the enzyme reaction wells was transferred to the T17 plates. The plates were then incubated for 1.5 hr at room temperature with shaking. The plates were washed three times and 40 μl of Delfia enhancement solution (Wallac Oy) was added to all wells. The plates were then read on the Victor 2 plate reader."}, "N. gonorrhoeae": {"tested_on": "N. gonorrhoeae", "assay": "Bacterial inhibition assay (growth, MTS readout)", "assay_type": "cell-based", "details": "CAMHB-3% LHB medium, 35° C., 5% CO2, 24 hours", "protocol": "as §1, §2"}, "[2]": {"tested_on": "peripheral blood mononuclear cells (PBMC)", "assay": "Cellular toxicity assay (MTS) on PBMC", "assay_type": "cell-based, human", "details": "24 hours incubation, MTS reagent; read-out: PBMC's TC50", "protocol": "Compounds of the invention (see Table 6) were assayed for cellular toxicity as follows. Whole blood was drawn from a volunteer, and the red cells were separated from the buffy coat cells by centrifugation over ficoll-paque. The resulting peripheral blood mononuclear cells (PBMC) were collected from the interface and washed extensively with PBS by centrifugation to remove platelets and cellular debris. The cells were then plated in 96-well tissue culture plates at a density of 5×10^5 cells per mL at 200 μL per well. After an hour incubation, the candidate compounds were added at the appropriate concentrations diluted from DMSO stocks into assay buffer (RPMI medium supplemented with 10% FCS). The cells were incubated at 37° C., 100% humidity and 5% CO2 for 24 hours at which time MTS reagent was added per the manufacturer's (Promega) instructions. After 2-3 hours incubation the optical density of the wells was read on a spectrophotometer. […] The data are evaluated using equation 2 as described in Example 17, where bacterial cells are replaced by PBMC cells in the measurements. The data describes the toxicity of these compounds to a representative human cell population (PBMC's)."}, "[3]": {"target": "T1, N. gonorrhoeae RNase P holoenzyme (Neisseria gonorrhoeae, UniProt Q5F4W3)", "T1 sequence (Q5F4W3 1-121)": "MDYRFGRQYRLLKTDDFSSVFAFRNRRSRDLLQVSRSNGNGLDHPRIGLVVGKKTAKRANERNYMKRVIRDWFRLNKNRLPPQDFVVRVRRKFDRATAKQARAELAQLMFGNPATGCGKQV", "assay": "biochemical", "details": "32P-labelled pGln substrate, room temperature; read-out: N. gonorrhoeae Gel assay IC50(μM) (Example 16)", "protocol": "RNase P Inhibition Polyacrylamide Gel Assay\nThe substrate, the precursor of tRNA^Gln, (pGln), from Synechocystis (Pascual and Vioque, 1999), was synthesized in vitro from the corresponding cDNA by T7 RNA polymerase in the presence of α^32P-GTP. Each control RNase P reaction of 10 μl contained 50 mM Tris-HCl (pH 7.8), 10 mM MgCl2, 100 mM NH4Cl, 1 mM dithiothreitol, and 0.4-1.0 pmol pGln substrate, radiolabeled to a specific activity of 1000-10,000 cpm/pmol. The reaction mixture, containing 0.1-1 nM holoenzyme, was incubated for 5-60 min at room temperature (18-24° C.), and the reaction was terminated by addition of an equal volume of 40 mM EDTA/8 M urea. The samples were electrophoresed in denaturing 8% polyacrylamide gels. The activity was quantified by exposure of the gel to a phosphorimaging screen. For test reactions that require the addition of compounds, the RNA subunits were pre-incubated with compound for 10 min at room temperature in the presence of buffer, followed by addition of the protein subunit. After a further 10 minutes of incubation, the radiolabeled substrate was added, and the reaction initiated. Products were analyzed as just described. The IC50 was the concentration of compound that was required to inhibit RNase P activity by 50%."}},
  "data": [
    {"smiles": "CC(=NNC(=N)N)c1cccc(NC(=O)[C@H](Cc2ccc(-c3ccccc3)cc2)NC(=O)c2cccc(I)c2)c1", "note": "[MES 10908, Guanylhydrazone of (S)-1-(3-iodobenzoyl)-N-(3-acetylphenyl)biphenyl-alaninamide]", "values": [
      {"measurement": "MIC", "setting": "S. pyogenes", "value": 10, "unit": "µM"},
      {"measurement": "IC50", "setting": "[1]", "value": 5, "unit": "µM"},
      {"measurement": "MIC", "setting": "N. gonorrhoeae", "value": ">100", "unit": "µM"},
      {"measurement": "CC50", "setting": "[2]", "value": 5, "unit": "µM"},
      {"measurement": "IC50", "setting": "[3]", "value": 6, "unit": "µM"}
    ]}
  ]
}
